Test results as given in article PMC8815882, “Screening the pandemic response box identified benzimidazole carbamates, Olorofim and ravuconazole as promising drug candidates for the treatment of eumycetoma” (PLoS Neglected Tropical Diseases, 2022).
Where two headings read alike, the source gives them in different places.

Key:
Assay type in all cases: cell-based, Madurella mycetomatis
[1] = system: M. mycetomatis genome strain MM55; assay: CLSI M38-A2 based in vitro susceptibility screening (XTT or resazurin), growth at fixed concentration
M. mycetomatis MM55 = assay: IC50 determination, 2-fold dilution series 16 to 0.03125 μM; settings: for IC50 / IC90: Madurella mycetomatis
[2] = system: ten different M. mycetomatis isolates; assay: MIC / MIC50 determination (XTT) in ten M. mycetomatis isolates; settings: no asterisk
[3] = Madurella mycetomatis, 25 uM, replicate A, read-out: Percentage survival at 25um, 25 um A
[4] = Madurella mycetomatis, 25 uM, replicate B, read-out: Percentage survival at 25um, 25 uM B
[5] = Madurella mycetomatis, 25 uM, replicate C, read-out: Percentage survival at 25um, 25 uM C
[6] = Madurella mycetomatis, 25 uM, mean, read-out: Percentage survival at 25um, 25 uM mean
[7] = Madurella mycetomatis, 100 uM, mean, read-out: Percentage survival at 100um, 100 uM mean
[8] = Madurella mycetomatis, 100 uM, replicate (first column), read-out: Percentage survival at 100um, 100 uM A
[9] = Madurella mycetomatis, 100 uM, replicate (second column), read-out: Percentage survival at 100um, 100 uM A
[10] = Madurella mycetomatis, 100 uM, replicate (third column), read-out: Percentage survival at 100um, 100 uM A
[11] = MM55, replicate 1, read-out: IC50 1
[12] = MM55, replicate 1, read-out: IC90 1
[13] = MM55, replicate 2, read-out: IC50 2
[14] = MM55, replicate 2, read-out: IC90 2
[15] = MM55, replicate 3, read-out: IC50 3
[16] = MM55, replicate 3, read-out: IC90 3

| IC90 (M. mycetomatis MM55; MM55, read-out: IC90 mean) [µM] | IC50 (M. mycetomatis MM55; [11]) [µM] | IC90 (M. mycetomatis MM55; [12]) [µM] | IC50 (M. mycetomatis MM55; [13]) [µM] | IC90 (M. mycetomatis MM55; [14]) [µM] | IC50 (M. mycetomatis MM55; [15]) [µM] | IC90 (M. mycetomatis MM55; [16]) [µM] | Compound | activity at 25 µM [1, 3] [%] | activity at 25 µM [1, 4] [%] | activity at 25 µM [1, 5] [%] | Drug static or cidal (M. mycetomatis MM55) | activity at 25 µM [1, 6] [%] | activity at 100 µM [1, 7] [%] | activity at 100 µM [1, 8] [%] | activity at 100 µM [1, 9] [%] | activity at 100 µM [1, 10] [%] | also measured |
| --- | --- | --- | --- | --- | --- | --- | --- | --- | --- | --- | --- | --- | --- | --- | --- | --- | --- |
|  |  |  |  |  |  |  | N=C(N)NCCCCC(=O)Nc1cc(C(F)(F)F)cc(NC(=O)c2cc(C(=O)Nc3cc(C(F)(F)F)cc(NC(=O)CCCCNC(=N)N)c3O[C@@H]3CCNC3)ncn2)c1O[C@@H]1CCNC1 [MMV1634402] | 3.69 | 8.57 | 29.8 | Cidal |  |  |  |  |  | activity at 25 µM ([1]; Madurella mycetomatis, 25 uM, mean of three replicates, read-out: Percentage survival at 25um, 25 uM mean): 14%; activity at 100 µM ([1]; Madurella mycetomatis, 100 uM, mean of three replicates, read-out: Percentage survival at 100um, 100 uM mean): 18.1%; activity at 100 µM ([1]; Madurella mycetomatis, 100 uM, replicate 1, read-out: Percentage survival at 100um, 100 uM A (first replicate column)): 14.1%; Percent fungal survival at 100 µM ([1]; Madurella mycetomatis, 100 uM, replicate 2, read-out: Percentage survival at 100um, 100 uM A (second replicate column)): 19.7%; activity at 100 µM ([1]; Madurella mycetomatis, 100 uM, replicate 3, read-out: Percentage survival at 100um, 100 uM A (third replicate column)): 20.5%; IC50 (M. mycetomatis MM55; MM55, mean of three replicates, read-out: IC50 mean): 12.2 µM; IC90 (M. mycetomatis MM55; MM55, mean of three replicates, read-out: IC90 mean): 22.2 µM; IC50 (M. mycetomatis MM55; MM55, replicate 1, read-out: IC50 1 um): 6.6 µM; IC90 (M. mycetomatis MM55; MM55, replicate 1, read-out: IC90 1 um): 20 µM; IC50 (M. mycetomatis MM55; MM55, replicate 2, read-out: IC50 2 um): 16.1 µM; IC90 (M. mycetomatis MM55; MM55, replicate 2, read-out: IC90 2 um): 23.9 µM; IC50 (M. mycetomatis MM55; MM55, replicate 3, read-out: IC50 3 um): 13.8 µM; IC90 (M. mycetomatis MM55; MM55, replicate 3, read-out: IC90 3 um): 22.8 µM |
| > 25 | > 25 | > 25 | > 25 | > 25 | > 25 | > 25 | Cc1ccc(Oc2ccccc2-c2csc(NC3=NCCCN3)n2)c(C)c1 [MMV1634493] | 34.1 | 1.37 | 4.64 | Static | 13.4 | 5.01 | 1.69 | 6.56 | 6.77 | IC50 (M. mycetomatis MM55; MM55, mean, read-out: IC50 mean): > 25 µM |
| > 25 | > 25 | > 25 | 23 | > 25 | > 25 | > 25 | O=[N+]([O-])/C(Br)=C/c1ccc(Br)o1 [MMV1645051] | 2.2 | -0.118 | 2.96 | Static | 1.68 | 7.68 | -0.809 | 7.74 | 16.1 |  |
|  |  |  |  |  |  |  | Miconazole [MMV689401, reference compound] |  |  |  |  |  |  |  |  |  | Percentage survival at 25um, 25 uM B [1]: 77.7759%; Percentage survival at 25um, 25 uM C [1]: 51.747%; Percentage survival at 25um, 25 uM mean [1]: 64.2303%; Percentage survival at 25um, 25 um A ([1]; 25 uM, replicate A, M. mycetomatis MM55): 63.1681%; Percentage survival at 100um, 100 uM mean ([1]; 100 uM, mean of three, M. mycetomatis MM55): 51.5997%; Percentage survival at 100um, 100 uM A (first replicate column) ([1]; 100 uM, replicate 1, M. mycetomatis MM55): 60.4441%; Percentage survival at 100um, 100 uM A (second replicate column) ([1]; 100 uM, replicate 2, M. mycetomatis MM55): 58.6196%; Percentage survival at 100um, 100 uM A (third replicate column) ([1]; 100 uM, replicate 3, M. mycetomatis MM55): 35.7354%; MIC50 ([2]; median MIC over ten M. mycetomatis isolates, read-out: MIC50): 0.13 µM; MIC range ([2]; range of MIC over ten M. mycetomatis isolates): <0.03 to 0.25 µM |
